Measured values reported in patent US11878973B2, “Bicyclic compounds and their uses” (NOVARTIS AG, priority 2021, dated 2024).

Columns and labels:
[1] = system: SW48 cells; experiment: Proliferation assay SW48 (CellTiterGlo, 96 hours); conditions: Homo sapiens, SW48, read-out: Proliferation Assay SW48 (GI50)
[2] = target: WRN helicase (Homo sapiens (Human), UniProt Q14191); experiment: In vitro enzymatic activity assay on WRN helicase (DNA dependent ATPase assay, ADP-Glo); type: biochemical; conditions: geometric means of at least 2 determinations; read-out: WRN ATPase Activity (IC50)
Outline: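 The WRN helicase core (aa N517-P1238), 10 nM, hydrolysed 300 µM ATP in the presence of 0.2 nM FLAP26 DNA (Tris pH 7.5, 2 mM MgCl2, 50 mM NaCl) for 30 min at room temperature. ADP formed was quantified by ADP-Glo luminescence.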

[3] = system: DLD1-WRN-KO cells; experiment: Proliferation assay DLD1-WRN-KO (CellTiterGlo, 96 hours; off-target effects); conditions: Homo sapiens, read-out: Proliferation Assay DLD1-WRN-KO (GI50)

WRN helicase, sequence (Q14191 517-1238): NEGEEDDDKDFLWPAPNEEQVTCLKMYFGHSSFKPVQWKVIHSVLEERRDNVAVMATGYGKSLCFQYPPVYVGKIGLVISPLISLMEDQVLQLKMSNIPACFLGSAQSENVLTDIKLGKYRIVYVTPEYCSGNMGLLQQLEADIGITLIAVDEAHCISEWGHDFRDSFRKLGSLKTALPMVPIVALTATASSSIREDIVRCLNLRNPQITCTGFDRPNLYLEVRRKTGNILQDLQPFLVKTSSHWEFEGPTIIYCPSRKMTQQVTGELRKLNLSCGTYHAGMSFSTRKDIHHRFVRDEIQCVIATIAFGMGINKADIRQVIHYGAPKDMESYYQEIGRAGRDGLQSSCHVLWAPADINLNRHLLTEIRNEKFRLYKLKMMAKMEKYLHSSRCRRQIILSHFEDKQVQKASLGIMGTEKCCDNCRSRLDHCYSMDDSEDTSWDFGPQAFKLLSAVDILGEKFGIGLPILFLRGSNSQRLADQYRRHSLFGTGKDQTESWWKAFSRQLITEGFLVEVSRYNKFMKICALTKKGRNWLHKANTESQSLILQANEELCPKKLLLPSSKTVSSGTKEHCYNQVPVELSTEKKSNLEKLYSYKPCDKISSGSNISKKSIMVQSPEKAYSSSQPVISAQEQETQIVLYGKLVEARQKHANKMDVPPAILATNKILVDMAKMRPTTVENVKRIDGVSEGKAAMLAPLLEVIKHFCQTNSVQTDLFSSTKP

GI50 [1] [nM]	IC50 [2] [nM]	GI50 [3] [nM]	Structure (SMILES)
170	90	> 10000	CCc1c(N2CCN(C(=O)c3ncccc3O)CC2)c(=O)n2nc(C3=CCOCC3)nc2n1CC(=O)Nc1cc(Cl)c(C(F)(F)F)nc1C [Example 102, N-(5-chloro-2-methyl-6-(trifluoromethyl)pyridin-3-yl)-2-(2-(3,6-dihydro-2H-pyran-4-yl)-5-ethyl-6-(4-(3-hydroxypicolinoyl)piperazin-1-yl)-7-oxo-[1,2,4]triazolo[1,5-a]pyrimidin-4(7H)-yl)acetamide]
270	120	> 10000	CCc1c(N2CCN(C(=O)c3nc(C)ncc3O)CC2)c(=O)n2nc(C3=CCOCC3)nc2n1CC(=O)Nc1ccc(C(F)(F)F)cc1C [Example 68, 2-(2-(3,6-dihydro-2H-pyran-4-yl)-5-ethyl-6-(4-(5-hydroxy-2-methylpyrimidine-4-carbonyl)piperazin-1-yl)-7-oxo-[1,2,4]triazolo[1,5-a]pyrimidin-4(7H)-yl)-N-(2-methyl-4-(trifluoromethyl)phenyl)acetamide]
340	190	> 10000	CCc1c(N2CCN(C(=O)c3ncccc3O)CC2)c(=O)n2nc(N3CCC[C@@H](F)C3)nc2n1CC(=O)Nc1ccc(C(F)(F)F)nc1Cl [Example 16a, (R)—N-(2-chloro-6-(trifluoromethyl)pyridin-3-yl)-2-(5-ethyl-2-(3-fluoropiperidin-1-yl)-6-(4-(3-hydroxypicolinoyl)piperazin-1-yl)-7-oxo-[1,2,4]triazolo[1,5-a]pyrimidin-4(7H)-yl)acetamide]
1120	330	> 10000	CCc1c(N2CCN(C(=O)c3ncccc3O)CC2)c(=O)n2nc(C3=CCC(F)CN3)nc2n1CC(=O)Nc1ccc(C(F)(F)F)cc1C (racemic) [Example 111, rac-2-(5-ethyl-2-(5-fluoro-1,4,5,6-tetrahydropyridin-2-yl)-6-(4-(3-hydroxypicolinoyl)piperazin-1-yl)-7-oxo-[1,2,4]triazolo[1,5-a]pyrimidin-4(7H)-yl)-N-(2-methyl-4-(trifluoromethyl)phenyl)acetamide]
90	40	> 10000	CCc1c(N2CCN(C(=O)c3nccc(C)c3O)CC2)c(=O)n2nc(C3=CCOCC3)nc2n1CC(=O)Nc1ccc(C(F)(F)F)cc1C [Example 66, 2-(2-(3,6-dihydro-2H-pyran-4-yl)-5-ethyl-6-(4-(3-hydroxy-4-methylpicolinoyl)piperazin-1-yl)-7-oxo-[1,2,4]triazolo[1,5-a]pyrimidin-4(7H)-yl)-N-(2-methyl-4-(trifluoromethyl)phenyl)acetamide]
230	180	> 10000	CCc1c(N2CCN(C(=O)c3ncccc3O)CC2)c(=O)n2nc(N3CCC[C@H](F)C3)nc2n1CC(=O)Nc1ccc(C(F)(F)F)nc1Cl [Example 16b, (S)—N-(2-chloro-6-(trifluoromethyl)pyridin-3-yl)-2-(5-ethyl-2-(3-fluoropiperidin-1-yl)-6-(4-(3-hydroxypicolinoyl)piperazin-1-yl)-7-oxo-[1,2,4]triazolo[1,5-a]pyrimidin-4(7H)-yl)acetamide]
320	230	> 10000	CCc1c(N2CCN(C(=O)c3ncccc3O)CC2)c(=O)n2nc(N3CCCC(F)C3)nc2n1CC(=O)Nc1ccc(C(F)(F)F)nc1Cl (racemic) [Example 16, rac-N-(2-chloro-6-(trifluoromethyl)pyridin-3-yl)-2-(5-ethyl-2-(3-fluoropiperidin-1-yl)-6-(4-(3-hydroxypicolinoyl)piperazin-1-yl)-7-oxo-[1,2,4]triazolo[1,5-a]pyrimidin-4(7H)-yl)acetamide]
480	90	> 10000	CCc1c(N2CCN(C(=O)c3ncncc3O)CC2)c(=O)n2nc(C3=CCOCC3)nc2n1CC(=O)Nc1ccc(C(F)(F)F)cc1C [Example 64, 2-(2-(3,6-dihydro-2H-pyran-4-yl)-5-ethyl-6-(4-(5-hydroxypyrimidine-4-carbonyl)piperazin-1-yl)-7-oxo-[1,2,4]triazolo[1,5-a]pyrimidin-4(7H)-yl)-N-(2-methyl-4-(trifluoromethyl)phenyl)acetamide]
50	50	> 10000	CCc1c(N2CCN(C(=O)c3ncccc3O)CC2)c(=O)n2nc(C3=CCOCC3)nc2n1CC(=O)Nc1ccc(C(F)(F)F)cc1 [Example 72, 2-(2-(3,6-dihydro-2H-pyran-4-yl)-5-ethyl-6-(4-(3-hydroxypicolinoyl)piperazin-1-yl)-7-oxo-[1,2,4]triazolo[1,5-a]pyrimidin-4(7H)-yl)-N-(4-(trifluoromethyl)phenyl)acetamide]
1210	360	> 10000	CCc1c(N2CCN(C(=O)c3ncccc3O)CC2)c(=O)n2nc(C3=CCCCN3)nc2n1CC(=O)Nc1ccc(C(F)(F)F)cc1C [Example 110, 2-(5-ethyl-6-(4-(3-hydroxypicolinoyl)piperazin-1-yl)-7-oxo-2-(1,4,5,6-tetrahydropyridin-2-yl)-[1,2,4]triazolo[1,5-a]pyrimidin-4(7H)-yl)-N-(2-methyl-4-(trifluoromethyl)phenyl)acetamide]
350	60	> 10000	CCc1c(N2CCN(C(=O)c3nccc(Cl)c3O)CC2)c(=O)n2nc(N3CCOCC3)nc2n1CC(=O)Nc1ccc(C(F)(F)F)cc1C [Example 9, 2-(6-(4-(4-chloro-3-hydroxypicolinoyl)piperazin-1-yl)-5-ethyl-2-morpholino-7-oxo-[1,2,4]triazolo[1,5-a]pyrimidin-4(7H)-yl)-N-(2-methyl-4-(trifluoromethyl)phenyl)acetamide]
40	40	> 10000	CCc1c(N2CCN(C(=O)c3ncncc3O)CC2)c(=O)n2nc(C3=CCOCC3)nc2n1CC(=O)Nc1ccc(S(F)(F)(F)(F)F)cc1Cl [Example 52, N-(2-chloro-4-(pentafluorosulfanyl)phenyl)-2-(2-(3,6-dihydro-2H-pyran-4-yl)-5-ethyl-6-(4-(5-hydroxypyrimidine-4-carbonyl)piperazin-1-yl)-7-oxo-[1,2,4]triazolo[1,5-a]pyrimidin-4(7H)-yl)acetamide]
440	110	> 10000	CCc1c(N2CCN(C(=O)c3ncccc3O)CC2)c(=O)n2nc(N3CCCC(F)C3)nc2n1CC(=O)Nc1ccc(C(F)(F)F)cc1Cl (racemic) [Example 15, rac-N-(2-chloro-4-(trifluoromethyl)phenyl)-2-(5-ethyl-2-(3-fluoropiperidin-1-yl)-6-(4-(3-hydroxypicolinoyl)piperazin-1-yl)-7-oxo-[1,2,4]triazolo[1,5-a]pyrimidin-4(7H)-yl)acetamide]
370	80	> 10000	CCc1c(N2CCN(C(=O)c3ncccc3O)CC2)c(=O)n2nc(N3CCC[C@@H](F)C3)nc2n1CC(=O)Nc1ccc(C(F)(F)F)cc1C [Example 14a, (R)-2-(5-ethyl-2-(3-fluoropiperidin-1-yl)-6-(4-(3-hydroxypicolinoyl)piperazin-1-yl)-7-oxo-[1,2,4]triazolo[1,5-a]pyrimidin-4(7H)-yl)-N-(2-methyl-4-(trifluoromethyl)phenyl)acetamide]
